Patent US20220331303A1, “USE OF AN OREXIN 2 RECEPTOR AGONIST FOR THE TREATMENT OF EXCESSIVE SLEEPINESS” (Takeda Pharmaceutical Company Limited, priority 2019, published 2022)

System: sleep-deprived healthy volunteers
Assay: Polysomnography (PSG) of recovery sleep after sleep deprivation in healthy volunteers
Type: in vivo, human
Procedure: Exploratory objectives in sleep-deprived healthy volunteers were as follows: • 1. To compare the effects of Compound A (LD and HD) and modafinil (300 mg) on promoting wakefulness as measured by MWT. • 2. To determine PK-PD relationships for selected PD measures. • 3. To evaluate PK-BP relationships in BP change after Compound A administration. • 4. To compare various polysomnography (PSG) parameters between Day −1 (predose) and Day 2 (recovery sleep). • 5. To determine whether there is any difference in the PSG parameters on Day 2 (recovery sleep) between Compound A and placebo or modafinil. • 6. To evaluate the continuous electroencephalogram (EEG) obtained during the MWTs for power spectra changes for Compound A (LD and HD) versus placebo, Compound A (LD and HD) versus modafinil, and modafinil versus placebo.
During the day before dosing on Day 1, participants were administered the KSS at scheduled timepoints. A practice MWT session was performed on Day 1 treatment period 1 (only once during the entire study) to familiarize subjects with the procedures. Study drug was administered in the clinic in the evening on Day 1 of each treatment period. Subjects underwent the MWT and KSS at specified timepoints after the start of the infusion. Subjects were required to stay awake between the MWT tests. Following completion of the IV infusion on Day 2, subjects underwent an additional MWT test. When the final MWT test and cognitive testing were completed, subjects were allowed to sleep (recovery sleep) for approximately 6 hours. PSG recording was collected during this time. Subjects were discharged from the unit after completion on Day 2 with continuing actigraphy upon discharge (to begin on Day −6 before the next treatment period). The interval between each subsequent treatment period was at least 7 days to ensure that the subject's circadian rhythm had returned to a normal cycle. Subject's vital signs, including BP, were monitored during the dosing and testing period. Blood samples for determination of Compound A plasma concentrations were collected at specified timepoints on Days 1 and 2 of each treatment period. Subjects completed the Columbia-Suicide Severity Rating Scale (C-SSRS) during screening, before study drug administration, and before discharge on Day 2 of each treatment period.
The PSGs assess recovery sleep during the day after the end of the sleep deprivation period. There were no corrections for multiple comparisons. […]

[1] = M: Modafinil 300 mg, recovery sleep
[2] = Modafinil 300 mg, recovery sleep

NC(=O)C[S+]([O-])C(c1ccccc1)c1ccccc1 (stereo not shown) [Modafinil, modafinil, reference compound]
Stage N3 Duration LS Mean (M: Modafinil 300 mg): 51.61 min | Stage N3 Duration LS Mean Difference vs placebo Estimate (M: Modafinil 300 mg): -29.78 min | Stage REM % LS Mean (M: Modafinil 300 mg): 17.46% | Stage REM % LS Mean Difference vs placebo Estimate (M: Modafinil 300 mg): −3.92% | Stage REM Duration LS Mean (M: Modafinil 300 mg): 41.38 min | Stage REM Duration LS Mean Difference vs placebo Estimate (M: Modafinil 300 mg): -25.18 min | Stage Wake % LS Mean (M: Modafinil 300 mg): 23.01% | Stage Wake % LS Mean Difference vs placebo Estimate (M: Modafinil 300 mg): 12.71% | Stage Wake Duration LS Mean (M: Modafinil 300 mg): 60.92 min | Stage Wake Duration LS Mean Difference vs placebo Estimate (M: Modafinil 300 mg): 25.39 min | Total Arousal Index LS Mean (M: Modafinil 300 mg): 14.28 | Total Arousal Index LS Mean Difference vs placebo Estimate (M: Modafinil 300 mg): 4.28 | Total Arousal LS Mean (M: Modafinil 300 mg): 51.11 | Total Arousal LS Mean Difference vs placebo Estimate (M: Modafinil 300 mg): 0.70 | Total Leg Movements LS Mean (M: Modafinil 300 mg): 23.91 | Total Leg Movements LS Mean Difference vs placebo Estimate (M: Modafinil 300 mg): 4.97 | Total Leg Movements N1 LS Mean (M: Modafinil 300 mg): 2.19 | Total Leg Movements N1 LS Mean Difference vs placebo Estimate (M: Modafinil 300 mg): 0.93 | Total Leg Movements N2 LS Mean (M: Modafinil 300 mg): 10.10 | Total Leg Movements N2 LS Mean Difference vs placebo Estimate (M: Modafinil 300 mg): 1.56 | Total Leg Movements N3 LS Mean (M: Modafinil 300 mg): 2.61 | Total Leg Movements N3 LS Mean Difference vs placebo Estimate (M: Modafinil 300 mg): 0.99 | Total Leg Movements REM LS Mean (M: Modafinil 300 mg): 5.75 | Total Leg Movements REM LS Mean Difference vs placebo Estimate (M: Modafinil 300 mg): 0.00 | Total Leg Movements with Awakening LS Mean (M: Modafinil 300 mg): 3.14 | Total Leg Movements with Awakening LS Mean Difference vs placebo Estimate (M: Modafinil 300 mg): 1.39 | Total Leg Movements with Microarous LS Mean (M: Modafinil 300 mg): 3.44 | Total Leg Movements with Microarous LS Mean Difference vs placebo Estimate (M: Modafinil 300 mg): 1.43 | Total Leg Movements with Resp Event LS Mean (M: Modafinil 300 mg): 0.04 | Total Leg Movements with Resp Event LS Mean Difference vs placebo Estimate (M: Modafinil 300 mg): −0.01 | Total Leg Movements without Arousal LS Mean (M: Modafinil 300 mg): 20.42 | Total Leg Movements without Arousal LS Mean Difference vs placebo Estimate (M: Modafinil 300 mg): 3.50 | Total Recording Time LS Mean (M: Modafinil 300 mg): 321.98 min | Total Recording Time LS Mean Difference vs placebo Estimate (M: Modafinil 300 mg): -34.92 min | Total Sleep Time LS Mean (M: Modafinil 300 mg): 224.54 min | Total Sleep Time LS Mean Difference vs Placebo Estimate (M: Modafinil 300 mg): -84.93 min | Wake After Persistent Sleep LS Mean (M: Modafinil 300 mg): 47.63 min | Wake After Persistent Sleep LS Mean Difference vs placebo Estimate (M: Modafinil 300 mg): 13.00 min | Wake After Sleep Onset LS Mean (M: Modafinil 300 mg): 60.92 min | Wake After Sleep Onset LS Mean Difference vs placebo Estimate (M: Modafinil 300 mg): 25.39 min | PSG Awakenings LS Mean [1]: 5.38 | PSG Awakenings LS Mean Difference vs Placebo Estimate [1]: 0.89 | PSG N1 Latency LS Mean [1]: 6.07 min | PSG N1 Latency LS Mean Difference vs Placebo Estimate [1]: 0.71 min | PSG N2 Latency LS Mean [1]: 8.62 min | PSG N2 Latency LS Mean Difference vs Placebo Estimate [1]: 1.98 min | PSG N3 Latency LS Mean [1]: 38.00 min | PSG N3 Latency LS Mean Difference vs Placebo Estimate [1]: 10.73 min | PSG Per. Slp LS Mean [1]: 26.19 min | PSG Per. Slp LS Mean Difference vs Placebo Estimate [1]: 19.32 min | PSG REM Latency LS Mean [1]: 71.67 min | PSG REM Latency LS Mean Difference vs Placebo Estimate [1]: 16.73 min | PSG Sleep Efficiency LS Mean [1]: 68.28% | PSG Sleep Efficiency LS Mean Difference vs Placebo Estimate [1]: −18.44% | PSG Sleep Onset LS Mean [1]: 5.99 min | PSG Sleep Onset LS Mean Difference vs Placebo Estimate [1]: 2.00 min | PSG Spontaneous Arousal Index LS Mean [1]: 11.91 | PSG Spontaneous Arousal Index LS Mean Difference vs Placebo Estimate [1]: 2.98 | PSG Spontaneous Arousal LS Mean [1]: 42.14 | PSG Spontaneous Arousal LS Mean Difference vs Placebo Estimate [1]: −2.93 | PSG Stage N1 % LS Mean [1]: 10.14% | PSG Stage N1 % LS Mean Difference vs Placebo Estimate [1]: 4.05% | PSG Stage N1 Duration LS Mean [1]: 19.12 min | PSG Stage N1 Duration LS Mean Difference vs Placebo Estimate [1]: 0.72 min | PSG Stage N2 % LS Mean [1]: 50.94% | PSG Stage N2 % LS Mean Difference vs Placebo Estimate [1]: 4.24% | PSG Stage N2 Duration LS Mean [1]: 111.09 min | PSG Stage N2 Duration LS Mean Difference vs Placebo Estimate [1]: -32.99 min | PSG Stage N3 % LS Mean [1]: 21.61% | PSG Stage N3 % LS Mean Difference vs Placebo Estimate [1]: −4.22% | PSG sleep efficiency, LS mean difference vs placebo [2]: −18.44% | PSG spontaneous arousal index, LS mean difference vs placebo [2]: 2.98 | PSG stage N1 %, LS mean difference vs placebo [2]: 4.05% | PSG stage N2 duration, LS mean difference vs placebo [2]: -32.99 min | PSG stage N3 %, LS mean difference vs placebo [2]: −4.22% | PSG stage N3 duration, LS mean difference vs placebo [2]: −29.78 | PSG stage REM %, LS mean difference vs placebo [2]: −3.92% | PSG stage REM duration, LS mean difference vs placebo [2]: -25.18 min | PSG stage wake %, LS mean difference vs placebo [2]: 12.71% | PSG stage wake duration, LS mean difference vs placebo [2]: 25.39 min | PSG time to per. slp (persistent sleep), LS mean difference vs placebo [2]: 19.32 min | PSG total arousal index, LS mean difference vs placebo [2]: 4.28 | PSG total recording time, LS mean difference vs placebo [2]: -34.92 min | PSG total sleep time, LS mean difference vs placebo [2]: -84.93 min | PSG wake after sleep onset, LS mean difference vs placebo [2]: 25.39 min
